Experimental data taken from patent publication EP0046734A2, “Aminohydroxyphenyl derivatives of cephalosporins, process for their preparation and pharmaceutical compositions containing them” (CIBA-GEIGY AG, priority 1980, dated 1982).
≈ marks a conversion by molar mass, not a printed value.

Assays:
[1] = test system: Escherichia coli DC2; assay: Antibiotic activity in vitro, agar dilution method in DST agar (MIC); assay type: cell-based
Source text: (§1) A. Die antibiotische Aktivität der Testverbindungen in vitro wurde durch die Agarverdünnungsmethode nach Ericsson, H.M. und Sherris, S.C., 1971, Acta Path. Microb. Scand. Section B, Suppl. No. 217, Bd. 1-90, in DST Agar ermittelt. Die gefundenen, das Wachstum der Testorganismen noch hemmenden Minimalkonzentrationen (MIC = minimum inhibiting concentrations) werden in Mikrogramm pro Milliliter (µg/ml) für die geprüften Verbindungen in der Tabelle 1 angegeben.

[2] = test system: Klebsiella pneumoniae 372; assay: as above; assay type: cell-based
Source text: as §1

[3] = test system: Neisseria meningitidis; assay: as above; assay type: cell-based
Source text: as §1

[4] = test system: Streptococcus pyogenes Aronson; assay: as above; assay type: cell-based
Source text: as §1

[5] = test system: Escherichia coli 205; assay: Chemotherapeutic activity in vivo against systemic infection in mice (ED50); design: species or system weiblichen SPF, MF2 Mäusen
Source text: (§2) B. Die chemotherapeutsche Wirksamkeit in vivo gegen systemische Infektionen in weiblichen SPF, MF2 Mäusen wurde nach der Methode von Zak, 0., et al., 1979, Drugs Exptl. Clin. Res. 5, 45.59, ermittelt. Die gefundenen ED50 -Werte in Milligramm Substanz pro Kilogramm Maus (mg/kg) gegen eine Anzahl von Mikroorganismen werden für die oral (p.o.) oder subcutan (s.c.) applizierten Testverbindungen in der Tabelle 2 angegeben.

[6] = test system: Klebsiella pneumoniae 327; assay: as above; design: species or system weiblichen SPF, MF2 Mäusen; details: po
Source text: as §2

[7] = test system: Proteus mirabilis 774; assay: as above; design: species or system weiblichen SPF, MF2 Mäusen; details: po
Source text: as §2

[8] = test system: Staphylococcus aureus 10 B; assay: as above; design: species or system weiblichen SPF, MF2 Mäusen
Source text: as §2

## COC1=C(C(=O)O)N2C(=O)[C@@H](NC(=O)[C@H](N)c3ccc(O)c(NS(C)(=O)=O)c3)[C@H]2SC1 [Verbindung 1, 7ß-[D-2-Amino-2-(3-methylsulfonylamino-4-hydroxyphenyl)-acetylamino]-3-methoxy-ceph-3-em-4-carbonsäure]
[1]
  MIC: 0.5 µg/mL (≈ 1.06 µM)
[2]
  MIC: 2 µg/mL (≈ 4.23 µM)
[3]
  MIC: 1 µg/mL (≈ 2.12 µM)
[4]
  MIC: 0.1 µg/mL (≈ 0.212 µM)
[5]; po
  ED50: 5 mg/kg
[5]; sc
  ED50: 6 mg/kg
[6]
  ED50: 7 mg/kg
[7]
  ED50: 22 mg/kg
[8]; po
  ED50: 1.5 mg/kg
[8]; sc
  ED50: 3 mg/kg

## CS(=O)(=O)Nc1cc([C@@H](N)C(=O)N[C@@H]2C(=O)N3C(C(=O)O)=CCS[C@H]23)ccc1O [Verbindung 2, 7ß-[D-2-Amino-2-(3-methylsulfQnylamino-4-hydroxyphenyl)-acetylamino]-ceph-3-em-4-carbonsäure]
[1]
  MIC: 4 µg/mL (≈ 9.04 µM)
[2]
  MIC: 4 µg/mL (≈ 9.04 µM)
[3]
  MIC: 8 µg/mL (≈ 18.1 µM)
[4]
  MIC: 4 µg/mL (≈ 9.04 µM)
[5]; po
  ED50: 2.2 mg/kg
[6]
  ED50: 3 mg/kg
[7]
  ED50: 22 mg/kg
[8]; po
  ED50: 1.5 mg/kg
[8]; sc
  ED50: 3 mg/kg

## CS(=O)(=O)Nc1cc([C@@H](N)C(=O)N[C@@H]2C(=O)N3C(C(=O)O)=C(Cl)CS[C@H]23)ccc1O [Verbindung 3, 7ß-[D-2-Amino-2-(3-methylsulfonylamino-4-hydroxyphenyl)-acetylamino]-3-chlor-ceph-3-em-4-carbonsäure]
[1]
  MIC: 0.5 µg/mL (≈ 1.05 µM)
[2]
  MIC: 1 µg/mL (≈ 2.1 µM)
[3]
  MIC: 0.5 µg/mL (≈ 1.05 µM)
[4]
  MIC: 0.5 µg/mL (≈ 1.05 µM)
[5]; po
  ED50: 2 mg/kg
[5]; sc
  ED50: 3 mg/kg
[6]
  ED50: 3 mg/kg
[7]
  ED50: 4 mg/kg
[8]; po
  ED50: 4 mg/kg
[8]; sc
  ED50: 10 mg/kg

## CCS(=O)(=O)Nc1cc([C@@H](N)C(=O)N[C@@H]2C(=O)N3C(C(=O)O)=CCS[C@H]23)ccc1O [Verbindung 4, 7ß-[D-2-Amino-2-(3-äthylsulfonylamino-4-hydroxyphenyl)-acetylamino]-ceph-3-em-4-carbonsäure]
[1]
  MIC: 4 µg/mL (≈ 8.76 µM)
[2]
  MIC: 4 µg/mL (≈ 8.76 µM)
[3]
  MIC: 4 µg/mL (≈ 8.76 µM)
[4]
  MIC: 1 µg/mL (≈ 2.19 µM)
[5]; po
  ED50: 4.5 mg/kg
[5]; sc
  ED50: 3 mg/kg
[6]
  ED50: 1.4 mg/kg
[7]
  ED50: 30 mg/kg
[8]; po
  ED50: 1.5 mg/kg
[8]; sc
  ED50: 3 mg/kg

## CCS(=O)(=O)Nc1cc([C@@H](N)C(=O)N[C@@H]2C(=O)N3C(C(=O)O)=C(Cl)CS[C@H]23)ccc1O [Verbindung 5, 7ß-[D-2-Amino-2-(3-äthylsulfonylamino-4-hydroxyphenyl)-acetylamino]-3-chlor-ceph-3-em-4-carbonsäure]
[1]
  MIC: 2 µg/mL (≈ 4.07 µM)
[2]
  MIC: 1 µg/mL (≈ 2.04 µM)
[3]
  MIC: 0.1 µg/mL (≈ 0.204 µM)
[4]
  MIC: 0.5 µg/mL (≈ 1.02 µM)
[5]; po
  ED50: 4.5 mg/kg
[5]; sc
  ED50: 3 mg/kg
[6]
  ED50: 1.4 mg/kg
[7]
  ED50: 30 mg/kg
[8]; po
  ED50: 7 mg/kg
[8]; sc
  ED50: 10 mg/kg

## CCS(=O)(=O)Nc1cc([C@@H](N)C(=O)N[C@@H]2C(=O)N3C(C(=O)O)=C(OC)CS[C@H]23)ccc1O [Verbindung 6, 7ß-[D-2-Amino-2-(3-äthylsulfonylamino-4-hydroxyphenyl)-acetylamino]-3-methoxy-ceph-3-em-4-carbonsäure]
[1]
  MIC: 2 µg/mL (≈ 4.11 µM)
[2]
  MIC: 16 µg/mL (≈ 32.9 µM)
[3]
  MIC: 0.1 µg/mL (≈ 0.206 µM)
[4]
  MIC: 0.5 µg/mL (≈ 1.03 µM)
[5]; po
  ED50: 6 mg/kg
[5]; sc
  ED50: 8 mg/kg
[6]
  ED50: 10 mg/kg
[7]
  ED50: 30 mg/kg
[8]; po
  ED50: 6 mg/kg
[8]; sc
  ED50: 15 mg/kg
